According to patent US20190343908A1, “Therapeutic Combination for the Treatment of Cancer” (Nerium Biotechnology Inc., priority 2011, published 2019):

What was measured:
[1] = test system: LNCaP prostate cancer cell line; assay: Crystal Violet viability assay, LNCaP; assay type: cell-based, human; conditions: for ABSORBANCE: LNCaP, 0.1 μg/mL cisplatin
Excerpt: (§1) Three different viability assays were chosen to complement each other and yielded results dependent on concentration and cell line: the Methyl Tetrazolium dye assay, the Sulforhodamine B fluorescent dye assay, and the Crystal Violet dye assay.
The Sulforhodamine B and Crystal Violet assays provide information about protein and were used to complement the Methyl-Tetrazolium dye assay. […] It is used for the quantification of cellular proteins of cultured cells. The assay using Crystal Violet, a dye that binds electrostatically to proteins and stains DNA, provides a reliable, simple assay for measuring viability of cells.
(§2) The Methyl Tetrazolium, Sulforhodamine B, and Crystal Violet assays were used to assess cell viabilities. The incubation times were 24 hours, 48 hours, and 72 hours. The Nerium oleander extract Anvirzel™ (a hot water extract of oleander obtained from Salud Integral, Honduras) was tested in concentrations ranging from 0.01 ng/mL to 10 ng/mL.
(§3) Cells were detached by trypsinization (Trypsin-0.25% EDTA, Invitrogen, 25200-072) during the logarithmic phase of culture growth and plated in 96-well plates (18.000 cells/well) (Corning, Costar 359) in a final volume of 200 μl of medium per well. […] The absorbance was measured after 24 hours, 48 hours, and 72 hours of incubation.
For the Crystal Violet assay, the medium was removed from the 96-well plates, the plates rinsed with PBS (Sigma, P3813) and then the cells were […] by the addition of 10% formalin (MERCK, 1.04003.2500) for 20 minutes at RT. Formalin was removed and 0.25% aqueous crystal violet (Sigma, HT901), dissolved in water, was added for 10 minutes at RT. Unbound Crystal Violet was rinsed by washing with water and finally 33% acetic acid was added to dissolve the dye.
(§4) The optical density of each plate was measured on a μQuant spectrophotometer and the data were analyzed with Gen5 software (μQuant Biomolecular Spectrophotometer MQX200 and Gen5™ Microplate Data Collection & Analysis software, BioTek® Instruments. Inc, April 2008). Absorbance was measured at 570 nm for all assays and a second wavelength was measured in order to subtract noise. For the Methyl-Tetrazolium assay this second wavelength was 630 nm and for the Sulforhodamine B and Crystal Violet assays it was 690 nm.

[2] = test system: HCT-15 (colorectal cancer); assay: Methyl-Tetrazolium viability assay, HCT-15; assay type: cell-based, human; set-up: key to MTT Average: absorbance (optical density) at 570 nm, second wavelength subtracted; conditions: for MTT Average 24 h / MTT Average 48 h / MTT Average 72 h: HCT-15, Run 1
Excerpt: as §1
The Methyl-Tetrazolium dye assay measures the activity of enzymes in mitochondria. The dye precursor is taken up by cells, where it undergoes reduction to the purple formazan. It measures only the mitochondrial activity and, thus, it is not always a reliable indication of whether the cells themselves are alive or dead, since even a recently dead cell has […] enzyme activity in mitochondria. Intracellular glucose concentration, pH, and time before assay all affect the measurements.
as §2, §3
For the Methyl-Tetrazolium assay, the dye (Sigma, M2128; 5 mg/mL, diluted in phosphate-buffered saline) was added to each well and plates were incubated for 3 hours at 37° C. After the end of the incubation period, the medium was discarded and the cells were rinsed with phosphate-buffered saline. Finally, the formazan crystals were dissolved in dimethylsulphoxide (Sigma, D4540).
as §4

## N.N.[Cl][Pt][Cl] [cisplatin]
[1]; LNCaP Run 3, 24 h, 0.1 μg/ml CDDP
  CVE Average: 0.425
[1]; LNCaP Run 3, 24 h, 1 μg/ml CDDP
  CVE Average: 0.152
[1]; LNCaP Run 3, 24 h, 10 μg/ml CDDP
  CVE Average: 0.171
[1]; LNCaP Run 3, 24 h, 100 μg/ml CDDP
  CVE Average: 0.133
[1]; LNCaP Run 3, 48 h, 0.1 μg/ml CDDP
  CVE Average: 0.387
[1]; LNCaP Run 3, 48 h, 1 μg/ml CDDP
  CVE Average: 0.24
[1]; LNCaP Run 3, 48 h, 10 μg/ml CDDP
  CVE Average: 0.267
[1]; LNCaP Run 3, 48 h, 100 μg/ml CDDP
  CVE Average: 0.3
[1]; LNCaP Run 3, 72 h, 0.1 μg/ml CDDP
  CVE Average: 0.619
[1]; LNCaP Run 3, 72 h, 1 μg/ml CDDP
  CVE Average: 0.312
[1]; LNCaP Run 3, 72 h, 10 μg/ml CDDP
  CVE Average: 0.303
[1]; LNCaP Run 3, 72 h, 100 μg/ml CDDP
  CVE Average: 0.289
[1]; 48 h
  ABSORBANCE: 0.408
[1]; 72 h
  ABSORBANCE: 0.448
[1]; Run 1, 0.1 μg/ml CDDP
  Average CVE 24 h: 0.418
  Average CVE 48 h: 0.541
  Average CVE 72 h: 0.684
[1]; Run 1, 1 μg/ml CDDP
  Average CVE 24 h: 0.327
  Average CVE 48 h: 0.252
  Average CVE 72 h: 0.558
[1]; Run 1, 10 μg/ml CDDP
  Average CVE 24 h: 0.289
  Average CVE 48 h: 0.467
  Average CVE 72 h: 0.423
[1]; Run 1, 100 μg/ml CDDP
  Average CVE 24 h: 0.359
  Average CVE 48 h: 0.306
  Average CVE 72 h: 0.398
[1]; Run 2, 0.1 μg/ml CDDP
  Average CVE 24 h: 0.463
  Average CVE 48 h: 0.408
  Average CVE 72 h: 0.448
[1]; Run 2, 1 μg/ml CDDP
  Average CVE 24 h: 0.227
  Average CVE 48 h: 0.29
  Average CVE 72 h: 0.522
[1]; Run 2, 10 μg/ml CDDP
  Average CVE 24 h: 0.278
  Average CVE 48 h: 0.207
  Average CVE 72 h: 0.299
[1]; Run 2, 100 μg/ml CDDP
  Average CVE 24 h: 0.276
  Average CVE 48 h: 0.237
  Average CVE 72 h: 0.214
[2]; 0.1 μg/ml CDDP
  MTT Average 24 h: 0.218
  MTT Average 48 h: 0.324
  MTT Average 72 h: 0.464
[2]; 1 μg/ml CDDP
  MTT Average 24 h: 0.032
  MTT Average 48 h: 0.032
  MTT Average 72 h: 0.025
[2]; 10 μg/ml CDDP
  MTT Average 24 h: 0.1
  MTT Average 48 h: 0.046
  MTT Average 72 h: 0.03
[2]; 100 μg/ml CDDP
  MTT Average 24 h: 0.034
  MTT Average 48 h: 0.023
  MTT Average 72 h: 0.017
[2]; Run 2, 24 h, 0.1 μg/ml CDDP
  MTT Average: 0.141
[2]; Run 2, 24 h, 1 μg/ml CDDP
  MTT Average: 0.03
[2]; Run 2, 24 h, 10 μg/ml CDDP
  MTT Average: 0.094
[2]; Run 2, 24 h, 100 μg/ml CDDP
  MTT Average: 0.025
[2]; Run 2, 48 h, 0.1 μg/ml CDDP
  MTT Average: 0.233
[2]; Run 2, 48 h, 1 μg/ml CDDP
  MTT Average: 0.031
[2]; Run 2, 48 h, 10 μg/ml CDDP
  MTT Average: 0.067
[2]; Run 2, 48 h, 100 μg/ml CDDP
  MTT Average: 0.014
[2]; Run 2, 72 h, 0.1 μg/ml CDDP
  MTT Average: 0.214
[2]; Run 2, 72 h, 1 μg/ml CDDP
  MTT Average: 0.016
[2]; Run 2, 72 h, 10 μg/ml CDDP
  MTT Average: 0.041
[2]; Run 2, 72 h, 100 μg/ml CDDP
  MTT Average: 0.01
[2]; Run 3, 24 h, 0.1 μg/ml CDDP
  MTT Average: 0.294
[2]; Run 3, 24 h, 1 μg/ml CDDP
  MTT Average: 0.028
[2]; Run 3, 24 h, 10 μg/ml CDDP
  MTT Average: 0.137
[2]; Run 3, 24 h, 100 μg/ml CDDP
  MTT Average: 0.039
[2]; Run 3, 48 h, 0.1 μg/ml CDDP
  MTT Average: 0.391
[2]; Run 3, 48 h, 1 μg/ml CDDP
  MTT Average: 0.035
[2]; Run 3, 48 h, 10 μg/ml CDDP
  MTT Average: 0.104
[2]; Run 3, 48 h, 100 μg/ml CDDP
  MTT Average: 0.026
[2]; Run 3, 72 h, 0.1 μg/ml CDDP
  MTT Average: 0.457
[2]; Run 3, 72 h, 1 μg/ml CDDP
  MTT Average: 0.039
[2]; Run 3, 72 h, 10 μg/ml CDDP
  MTT Average: 0.043
[2]; Run 3, 72 h, 100 μg/ml CDDP
  MTT Average: 0.017
